Results taken from patent US7659104B2, “Solvent tolerant microorganisms and methods of isolation” (E.I. du Pont de Nemours and Company, priority 2006, dated 2010).

What was measured:
[1] = test system: Lactococcus lactis overexpressing GroESL; settings: Desmond et al.; equals 0.4% w/v; cited from earlier work
[2] = test system: most microorganisms described in the art; settings: liquid medium; 37° C.; cited from earlier work
[3] = test system: enrichment cultures from environmental sludge samples; settings: 37° C.
Method: Environmental sludge samples were obtained from wastewater treatment facilities at several E.I. du Pont de Nemours and Company sites. Enrichment cultures were established for each sample by inoculating a 125-mL screw cap Erlenmeyer flask with 1 mL of a sludge sample in 10 mL of minimal enrichment medium (i.e., 10 mM ammonium sulfate, 50 mM potassium phosphate buffer, pH 7.0, 2 mM MgCl2, 0.7 mM CaCl2, 50 μM MnCl2, 1 μM FeCl3, 1 μM ZnCl2, 1.72 μM CuCl2, 2.53 μM CoCl2, 2.42 μM Na2MoO4, 2 μM thiamine hydrochloride, 0.5% glucose, 0.5% fructose, 0.5% sucrose and 0.1% yeast extract). The enrichment cultures were incubated at 37° C. with shaking. After 24 h of incubation, the enrichment cultures were diluted 1:10 into fresh medium that contained 0.8%, 1.2% or 1.6% w/v 1-butanol (Sigma Chemical Co.; molecular biology grade (greater than or equal to 99% purity)). Incubation continued under the same conditions. Cultures with the highest level of 1-butanol allowing significant growth (e.g., a culture with an initial OD600 of approximately 0.1 that increased within 24 to 48 h to an OD600 of approximately 1.0) were then diluted 1:10 into fresh medium that contained higher levels of 1-butanol to select for increased tolerance to 1-butanol.

[4] = test system: Lactobacillus paracasei overexpressing GroESL; settings: Desmond et al.; equals 0.4% w/v; cited from earlier work
[5] = test system: isolates listed in Table 5 (PN0048, PN0197-10, PN0133); assay: Growth on solid medium (S20 agar replica plating), isolates listed in Table 5; format: cell-based, Enterococcus; settings: 37° C., 24 to 72 h
Method: Phylogenetic characterization of the microbial consortium in the anaerobic bioreactor and isolation of pure strains of 1-butanol resistant bacteria from this bioreactor were performed as follows. Samples of cells taken from the bioreactor at various times and from the bioreactor waste jug were serially diluted, and the serial dilutions were plated on S20 agar medium (S20 medium with 1.6% DifCo™ Agar, Noble-Solidifying agent) without 1-butanol. Colonies were then inoculated from the S20 agar medium into 1.2 mL of S20 medium without 1-butanol in the wells of a square-well microtiter plate (Beckman Coulter Inc, Fullerton, Calif.; Catalog No. 069681). […] Butanol tolerance was determined by growth in the presence of 1-butanol as determined by measuring increases in optical density at 595 nm (OD595) on a microtiter plate reader (HTS 7000 Plus Bio Assay Reader, PerkinElmer Life and Analytical Sciences Inc., Wellesley, Mass.). Isolates that had OD595 readings in the range of 0.1 to 0.8 after growth for 48 h at 37° C. with shaking were selected for further tolerance testing. […] The IC50 values of the isolated strains were determined at 37° C., for 1-butanol, 2-butanol, isobutanol, 2-butanone (also called methyl ethyl ketone (MEK)) and ethanol, following the method described in Example 1.

[6] = test system: PN0110 (Enterococcus faecium); settings: 37° C.
Method: (§1) Pure strains of 1-butanol resistant bacteria were isolated from the enrichment cultures as follows. The cells grown in an enrichment culture containing 1.2% or 1.6% 1-butanol were serially diluted, and the serial dilutions were plated on Luria Bertani (LB) agar medium, modified LB agar (i.e., LB agar supplemented with 0.5% sucrose, 0.5% glucose, 0.5% fructose, 0.5% sodium pyruvate, 2 mM MgCl2, 0.7 mM CaCl2, 50 μM MnCl2, 1 μM FeCl3, 1 μM ZnCl2, 1.72 μM CuCl2, 2.53 μM CoCl2, 2.42 μM Na2MoO4 and 2 μM thiamine hydrochloride) or minimal enrichment medium with 2.0% Difco™ Agar Noble, (BD Diagnostic Systems, Sparks, Md.), all without 1-butanol. Colonies were then inoculated from the agar medium into minimal enrichment medium (described above) without 1-butanol in the wells of a microtiter plate. […] The growth was monitored (by OD600) of isolates cultured in S30L medium (i.e., 10 mM ammonium sulfate, 5 mM potassium phosphate buffer, pH 7.0, 50 mM MOPS, pH 7.0, 2 mM MgCl2, 0.7 mM CaCl2, 50 μM MnCl2, 1 μM FeCl3, 1 μM ZnCl2, 1.72 μM CuCl2, 2.53 μM CoCl2, 2.42 μM Na2MoO4, 2 μM thiamine hydrochloride, 0.01 M glucose, and 0.2% yeast extract) at 37° C. in the absence (control) and in the presence of from 1.2% to 3.0% w/v of 1-butanol and the doubling time for each culture was calculated from the logarithmic part of the growth curve (doubling time=0.693/growth rate).

[7] = test system: isolates from the enrichments; settings: 37° C., microtiter plate
Method: as §1

[8] = liquid minimal enrichment medium, shaking

## CCCCO [1-butanol]
[1]
  concentration in whose presence strains were able to grow: 0.5 % volume/volume (v/v)
[2]
  concentration at which growth is totally inhibited: less than 2.0 % w/v
[3]; liquid medium
  concentration in whose presence none of the enrichment cultures grew: 2.0%
[3]; [8]
  concentration in whose presence enrichment cultures from some sites grew: 1.6%
  concentration in whose presence most of the enrichment cultures grew: 1.2%
[4]
  concentration in whose presence strains were able to grow: 0.5 % volume/volume (v/v)
[5]
  concentration on solid medium at which isolates displayed growth: ≥ 2.5%
[6]
  concentration in solid medium on which the strain was able to grow: 2.5 % w/v
[7]
  concentration in liquid medium at which several isolates displayed growth: at least 2.0%
